Values after ≈ are worked out from the molar mass of the structure shown. “Also recorded” adds a separate entry of the source. Like-named read-outs stand apart in the source and are kept apart here.
Legend:
LATS1 [1] = target: T1, LATS1 (Homo sapiens, UniProt O95835); test: KINOMEscan, LATS1; format: binding; settings: 1 μM
[2] = tested on: immortalized human endometriotic epithelial cells (iHEEC); test: Phosphorylation of JNK and Jun in iHEEC; format: cell-based
Excerpt: FIG. 26A depicts the effects of CDD-2728 and CDD-3013 on phosphorylation of the JNK enzyme itself (i.e., representing MEK4 inhibition) and phosphorylation of pSer63 and pSer73 on the transcription factor Jun in immortalized human endometriotic epithelial cells (iHEEC). The HEEC cells are a well characterized cell line that are relevant for the evaluation of inflammatory endpoints and measures of epithelial-to-mesenchymal transitions (EMT). […] This is consistent with the potency relationships of CDD-2728 relative to bentamapimod observed in cytokine gene expression described above in iHEEC cells and primary human stromal endometriotic cells. […] SP600125 has been frequently described as a poorly-selective JNK-I but in this context provides additional confirmation of inhibition of the JNK target kinase for CDD-2728. […] This adds further support to the critical role of JNK-1 to the therapeutic effect of the JNK inhibitors of the disclosure.

Other MAPK = test: Eurofins KdSelect, other MAPK; format: binding; settings: Table 2; IC50 nM; read-out: Other MAPK, based on Kd select results
Excerpt: The next step was to confirm that the compounds that bound to JNK1, JNK2 or JNK3 in a competitive manner, relative to bentamapimod, were inhibitors of the ATP-dependent kinase activity in assays. In many cases, the results have been replicated at ThermoFisher using their SelectScreen technology platform. Based on knowledge about JNK inhibitors, and the results of DEC-Tec selections, a target compound profile was developed (Table 2).
The efficacy and selectivity of BEND and TANZ were used to define a realistic preliminary target compound profile (Table 2) for the next generation of JNK1-3 inhibitors for the treatment of endometriosis.

LATS1 [3] = target: T1, LATS1; test: ThermoFisher Z'Lyte assay, LATS1; format: biochemical
Excerpt: Inhibition of LATS1 was not confirmed in a subsequent ThermoFisher Z'Lyte assay.

[4] = cited from earlier work; for clinical safety: Phase 1 volunteers / IPF
JNK1 [5] = target: T2, JNK1 (Homo sapiens, UniProt P45983); test: Promega NanoBRET intracellular target engagement (tracer K10 displacement), JNK1; format: cell-based
JNK2 [6] = target: T3, JNK2 (Homo sapiens, UniProt P45984); test: Promega NanoBRET intracellular target engagement (tracer K10 displacement), JNK2; format: cell-based
JNK1 [7] = target: T2, JNK1; test: JNK1 biochemical assay (piperazine series)
Excerpt: FIG. 21B depicts concentration-dependent inhibition of JNK1 with CDD-1722 and CDD-1723. Components of CDD-1722 and CD-1723 represent alternative building blocks which may be incorporated during optimization of pharmaceutical properties of JNK-I.

JNK3 [8] = target: T4, JNK3 (Homo sapiens, UniProt P53779); test: Promega NanoBRET intracellular target engagement (tracer K10 displacement), JNK3; format: cell-based
hVPS34 = target: T5, hVPS34 (Homo sapiens, UniProt Q8NEB9); test: ThermoFisher SelectScreen, hVPS34; format: binding; settings: Table 4
T5 construct: purchased ThermoFisher (SelectScreen, outsourced service)
Method: (§1) To mitigate violation of the linear initial velocity principle, which is a problem in end-point assays when doing dose-responses, the enzyme concentration was carefully optimized, in a total assay volume of 25 μL. The assay was performed using 10 μM ATP, 0.02% Tween-20, kinase buffer from Cell Signaling (#9802) in white 384-well plates. The kinase reaction was done for 30 or 60 min at 30° C., and detection of leftover ATP was measured according to Promega's protocol. […] Fractional activities were obtained from normalized data. Non-linear regression (GraphPad Prism7) and a modified Morrison equation for tight binding was used to determine apparent Ki values for inhibitors, assuming no particular mode of inhibition. An orthogonal binding assay (LanthaScreen) was outsourced to ThermoFisher Scientific's SelectScreen Services to determine IC50 values.
(§2) One of the earliest compounds to be synthesized with favorable enzymatic activity towards JNK1 and JNK3 was CDD-2346. A KINOMEscan was performed for CDD-2346 to establish whether the selectivity of this chemical scaffold was suitable or required optimization. […] To confirm that the activity against each kinase was a true result and not a false positive, CDD-2346 was evaluated in kinase assays using ThermoFisher SelectScreen platform. The results from these assays are provided herein (Table 4). The important innovative steps described are the optimization of selectivity a) for JNK isoforms; b) for kinases considered “in-pathway”; and c) to avoid kinases considered “out-of-pathway”.

JNK3 [9] = target: T4, JNK3; test: JNK3 kinase (intrinsic ATPase, Kinase-Glo) assay; format: biochemical
MEK4 = target: T6, MEK4 (Homo sapiens, UniProt P45985); test: ThermoFisher SelectScreen, MEK4; format: binding
T6 construct: purchased ThermoFisher (SelectScreen)
T6 sequence (P45985 1-399): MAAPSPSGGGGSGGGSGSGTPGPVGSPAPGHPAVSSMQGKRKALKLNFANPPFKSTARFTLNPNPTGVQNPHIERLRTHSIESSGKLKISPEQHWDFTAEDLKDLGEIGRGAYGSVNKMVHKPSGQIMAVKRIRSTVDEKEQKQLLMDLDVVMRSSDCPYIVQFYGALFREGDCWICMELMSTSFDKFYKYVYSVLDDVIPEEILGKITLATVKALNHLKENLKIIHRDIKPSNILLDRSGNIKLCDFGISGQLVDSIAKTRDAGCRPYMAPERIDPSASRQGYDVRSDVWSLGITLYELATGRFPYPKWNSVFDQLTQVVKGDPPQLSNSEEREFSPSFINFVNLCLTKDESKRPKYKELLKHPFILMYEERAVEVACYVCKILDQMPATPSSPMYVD

CSNK1E = target: T7, CSNK1E (Homo sapiens, UniProt P49674); test: ThermoFisher SelectScreen, CSNK1E; format: binding
T7 construct: purchased ThermoFisher (SelectScreen)

JNK1 [10] = target: T2, JNK1; test: JNK1 kinase (intrinsic ATPase, Kinase-Glo) assay; format: biochemical
In short: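 Full-length construct not stated; kinases hydrolyse ATP without peptide substrate, reaction run 30 or 60 min at 30° C, remaining ATP read by Kinase-Glo luminescence with no-kinase controls. Apparent Ki from normalized fractional activities fitted to modified Morrison tight-binding equation; orthogonal LanthaScreen binding assay gave IC50.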

MEK5 = target: T8, MEK5 (Homo sapiens, UniProt Q13163); test: ThermoFisher SelectScreen, MEK5; format: binding; settings: Table 4
T8 construct: purchased ThermoFisher (SelectScreen, outsourced service)
T8 sequence (Q13163 1-448): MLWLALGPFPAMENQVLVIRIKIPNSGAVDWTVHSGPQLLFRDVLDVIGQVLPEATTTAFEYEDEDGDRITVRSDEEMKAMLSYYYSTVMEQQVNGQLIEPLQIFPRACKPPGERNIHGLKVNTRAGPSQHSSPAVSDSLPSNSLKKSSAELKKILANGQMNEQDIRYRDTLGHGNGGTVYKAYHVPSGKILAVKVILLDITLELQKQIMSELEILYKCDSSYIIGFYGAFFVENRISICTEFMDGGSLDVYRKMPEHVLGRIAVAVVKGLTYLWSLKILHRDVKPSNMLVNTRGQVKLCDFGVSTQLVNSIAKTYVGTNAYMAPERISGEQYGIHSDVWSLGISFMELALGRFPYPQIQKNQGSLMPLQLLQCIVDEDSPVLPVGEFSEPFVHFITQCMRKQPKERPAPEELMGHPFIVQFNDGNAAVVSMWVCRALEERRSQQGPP
Method: as §1, §2

JNK3 [11] = target: T4, JNK3; test: ThermoFisher SelectScreen, JNK3; format: binding
[12] = In vitro metabolism in mouse liver microsomes; settings: mouse, microsomes
Method: (§3) The target product profile seeks to deliver JNK inhibitor as a once daily oral administration. To prioritize compounds for further development, in vitro metabolism of several CDD JNK inhibitors were determined to approximate the plasma half-life and the rate of metabolism of the compounds in vivo.

[13] = In vitro metabolism in human liver microsomes; settings: human, microsomes
Method: as §3

JNK2 [14] = target: T3, JNK2; test: JNK2 kinase (intrinsic ATPase, Kinase-Glo) assay; format: biochemical
CSNK1D = target: T9, CSNK1D (Homo sapiens, UniProt P48730); test: ThermoFisher SelectScreen, CSNK1D; format: binding
T9 construct: purchased ThermoFisher (SelectScreen)

CSNK1G1 = target: T10, CSNK1G1 (Homo sapiens, UniProt Q9HCP0); test: ThermoFisher SelectScreen, CSNK1G1; format: binding; settings: Table 4
T10 construct: purchased ThermoFisher (SelectScreen)
Method: as §1, §2
No activity of CDD-2728 was detected for Atypical, Mutant, or Lipid kinases. To confirm CDD-2728 inhibition results in the KINOMEscan analysis, individual binding assays were performed on the kinases to which CDD-2728 bound using ThermoFisher SelectScreen.

CLK2 = target: T11, CLK2 (Homo sapiens, UniProt P49760); test: ThermoFisher SelectScreen, CLK2; format: binding
T11 construct: purchased ThermoFisher (SelectScreen)

HepG2 cells = test: HepG2 cell viability (ATP consumption); settings: CDD-2575 25 μM; CDD-2728, CDD-2624 up to 75
Method: This assay reflects cell viability. […] To determine if the responses observed in endometriotic epithelial cells and endometriotic stromal cell cultures were cytotoxic, cell viability was performed in HepG2 cells.

T3 sequence (P45984 whole entry): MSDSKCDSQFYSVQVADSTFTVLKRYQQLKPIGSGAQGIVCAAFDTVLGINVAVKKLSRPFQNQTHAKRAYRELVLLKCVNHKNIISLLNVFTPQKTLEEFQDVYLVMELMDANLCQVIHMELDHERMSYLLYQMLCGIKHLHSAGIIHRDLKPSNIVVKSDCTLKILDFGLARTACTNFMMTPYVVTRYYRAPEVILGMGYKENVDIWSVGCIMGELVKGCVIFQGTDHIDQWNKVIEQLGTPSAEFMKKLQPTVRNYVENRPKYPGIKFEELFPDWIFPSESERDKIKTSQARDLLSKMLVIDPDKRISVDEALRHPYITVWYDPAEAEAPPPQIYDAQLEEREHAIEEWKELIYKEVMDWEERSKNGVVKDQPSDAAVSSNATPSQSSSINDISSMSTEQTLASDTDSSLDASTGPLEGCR
T4 sequence (P53779 whole entry): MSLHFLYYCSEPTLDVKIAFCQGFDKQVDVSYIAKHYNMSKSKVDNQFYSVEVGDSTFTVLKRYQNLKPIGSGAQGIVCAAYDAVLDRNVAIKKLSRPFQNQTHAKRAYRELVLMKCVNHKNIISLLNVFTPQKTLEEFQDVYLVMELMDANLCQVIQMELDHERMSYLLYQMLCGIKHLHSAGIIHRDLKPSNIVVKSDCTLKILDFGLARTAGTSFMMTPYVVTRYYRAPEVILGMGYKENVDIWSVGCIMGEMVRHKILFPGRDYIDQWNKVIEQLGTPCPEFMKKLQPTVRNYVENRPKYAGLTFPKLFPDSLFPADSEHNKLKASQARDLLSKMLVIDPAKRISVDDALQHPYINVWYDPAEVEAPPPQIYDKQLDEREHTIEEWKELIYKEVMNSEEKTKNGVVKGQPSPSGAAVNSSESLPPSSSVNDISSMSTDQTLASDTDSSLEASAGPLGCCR
T2 sequence (P45983 whole entry): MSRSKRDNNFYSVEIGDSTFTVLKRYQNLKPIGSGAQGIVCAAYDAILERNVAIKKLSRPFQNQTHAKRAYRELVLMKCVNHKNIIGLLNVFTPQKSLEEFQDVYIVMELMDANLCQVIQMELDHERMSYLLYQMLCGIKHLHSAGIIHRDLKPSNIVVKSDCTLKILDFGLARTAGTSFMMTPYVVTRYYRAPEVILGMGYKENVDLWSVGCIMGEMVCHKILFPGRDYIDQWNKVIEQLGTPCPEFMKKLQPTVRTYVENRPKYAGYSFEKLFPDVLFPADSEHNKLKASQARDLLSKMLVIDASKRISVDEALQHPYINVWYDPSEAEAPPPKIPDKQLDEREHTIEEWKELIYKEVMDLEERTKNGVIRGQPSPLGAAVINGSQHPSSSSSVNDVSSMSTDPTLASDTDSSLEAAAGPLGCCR
T1 sequence (O95835 whole entry): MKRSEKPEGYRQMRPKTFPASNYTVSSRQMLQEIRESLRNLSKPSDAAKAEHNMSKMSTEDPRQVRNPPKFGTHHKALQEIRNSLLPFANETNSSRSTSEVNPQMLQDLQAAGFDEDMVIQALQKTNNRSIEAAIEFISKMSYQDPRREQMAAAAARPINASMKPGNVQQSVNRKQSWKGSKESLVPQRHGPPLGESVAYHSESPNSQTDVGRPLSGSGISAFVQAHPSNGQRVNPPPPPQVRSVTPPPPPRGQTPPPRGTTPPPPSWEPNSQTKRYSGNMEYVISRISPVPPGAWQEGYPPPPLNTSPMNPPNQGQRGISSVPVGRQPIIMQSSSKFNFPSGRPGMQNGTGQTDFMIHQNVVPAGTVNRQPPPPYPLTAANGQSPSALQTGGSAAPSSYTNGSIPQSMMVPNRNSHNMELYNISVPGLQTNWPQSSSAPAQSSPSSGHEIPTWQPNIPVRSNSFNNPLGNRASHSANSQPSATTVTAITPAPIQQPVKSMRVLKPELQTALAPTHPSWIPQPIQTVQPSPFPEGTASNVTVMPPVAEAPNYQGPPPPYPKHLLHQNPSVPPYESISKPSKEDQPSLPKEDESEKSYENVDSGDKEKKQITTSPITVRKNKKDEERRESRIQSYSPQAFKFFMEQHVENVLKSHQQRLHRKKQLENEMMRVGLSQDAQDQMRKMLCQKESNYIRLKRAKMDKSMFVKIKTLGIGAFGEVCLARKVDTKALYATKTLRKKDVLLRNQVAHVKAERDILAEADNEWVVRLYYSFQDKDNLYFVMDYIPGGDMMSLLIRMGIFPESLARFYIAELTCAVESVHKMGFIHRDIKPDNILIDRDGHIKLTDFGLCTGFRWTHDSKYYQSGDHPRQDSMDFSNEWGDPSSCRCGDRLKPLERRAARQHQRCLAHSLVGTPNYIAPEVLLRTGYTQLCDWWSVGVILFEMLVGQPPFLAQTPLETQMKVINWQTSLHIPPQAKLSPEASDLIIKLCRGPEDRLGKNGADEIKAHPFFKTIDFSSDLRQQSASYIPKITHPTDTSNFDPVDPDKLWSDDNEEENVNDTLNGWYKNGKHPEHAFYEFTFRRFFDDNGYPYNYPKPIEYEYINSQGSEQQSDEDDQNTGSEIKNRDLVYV
T5 sequence (Q8NEB9 whole entry): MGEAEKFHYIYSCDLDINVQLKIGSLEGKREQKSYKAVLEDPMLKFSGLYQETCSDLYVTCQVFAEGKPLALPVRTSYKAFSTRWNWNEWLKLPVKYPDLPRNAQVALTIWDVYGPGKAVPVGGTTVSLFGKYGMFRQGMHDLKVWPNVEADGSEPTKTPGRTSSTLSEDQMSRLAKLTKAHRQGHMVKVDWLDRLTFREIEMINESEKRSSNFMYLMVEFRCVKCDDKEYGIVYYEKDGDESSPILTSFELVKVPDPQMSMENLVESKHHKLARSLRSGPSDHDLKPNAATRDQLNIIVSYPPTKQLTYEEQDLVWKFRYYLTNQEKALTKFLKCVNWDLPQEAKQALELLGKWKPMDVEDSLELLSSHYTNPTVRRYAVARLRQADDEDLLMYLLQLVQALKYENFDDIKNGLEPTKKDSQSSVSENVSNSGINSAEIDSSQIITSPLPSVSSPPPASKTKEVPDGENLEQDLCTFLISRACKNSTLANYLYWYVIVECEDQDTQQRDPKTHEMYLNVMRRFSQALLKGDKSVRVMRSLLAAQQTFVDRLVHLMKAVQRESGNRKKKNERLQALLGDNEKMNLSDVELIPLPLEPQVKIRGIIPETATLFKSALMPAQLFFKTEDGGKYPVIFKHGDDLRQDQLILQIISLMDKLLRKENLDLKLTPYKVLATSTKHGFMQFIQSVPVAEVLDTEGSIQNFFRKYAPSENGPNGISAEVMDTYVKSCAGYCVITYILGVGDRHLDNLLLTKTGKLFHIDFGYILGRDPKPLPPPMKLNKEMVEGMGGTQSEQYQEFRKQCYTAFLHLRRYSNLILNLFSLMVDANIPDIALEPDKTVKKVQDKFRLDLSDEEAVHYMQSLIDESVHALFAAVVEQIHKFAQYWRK
T11 sequence (P49760 whole entry): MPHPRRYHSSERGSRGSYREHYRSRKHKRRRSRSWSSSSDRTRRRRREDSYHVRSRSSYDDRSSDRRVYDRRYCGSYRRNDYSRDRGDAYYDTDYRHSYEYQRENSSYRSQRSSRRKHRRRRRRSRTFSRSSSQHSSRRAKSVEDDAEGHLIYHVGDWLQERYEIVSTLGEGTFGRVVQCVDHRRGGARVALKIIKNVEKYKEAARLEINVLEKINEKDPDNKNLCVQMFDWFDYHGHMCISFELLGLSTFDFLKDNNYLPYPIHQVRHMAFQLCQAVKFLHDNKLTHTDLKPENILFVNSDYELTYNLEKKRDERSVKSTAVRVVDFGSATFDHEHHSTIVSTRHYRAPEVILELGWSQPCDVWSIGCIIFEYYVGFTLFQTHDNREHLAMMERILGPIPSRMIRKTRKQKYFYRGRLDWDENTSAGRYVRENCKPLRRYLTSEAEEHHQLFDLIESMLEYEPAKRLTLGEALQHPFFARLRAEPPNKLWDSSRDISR
T10 sequence (Q9HCP0 whole entry): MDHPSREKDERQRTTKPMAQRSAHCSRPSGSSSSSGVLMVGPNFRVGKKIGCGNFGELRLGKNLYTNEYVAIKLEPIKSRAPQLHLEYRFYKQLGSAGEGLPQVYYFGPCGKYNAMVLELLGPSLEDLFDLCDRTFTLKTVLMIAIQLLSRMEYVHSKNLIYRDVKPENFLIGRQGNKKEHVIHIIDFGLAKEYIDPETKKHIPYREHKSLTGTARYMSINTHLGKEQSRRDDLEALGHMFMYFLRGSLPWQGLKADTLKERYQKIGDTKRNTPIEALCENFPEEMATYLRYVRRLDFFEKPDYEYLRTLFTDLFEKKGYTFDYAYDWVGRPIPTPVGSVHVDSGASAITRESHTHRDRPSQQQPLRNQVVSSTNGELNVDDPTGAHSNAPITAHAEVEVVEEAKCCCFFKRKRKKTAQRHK
T7 sequence (P49674 whole entry): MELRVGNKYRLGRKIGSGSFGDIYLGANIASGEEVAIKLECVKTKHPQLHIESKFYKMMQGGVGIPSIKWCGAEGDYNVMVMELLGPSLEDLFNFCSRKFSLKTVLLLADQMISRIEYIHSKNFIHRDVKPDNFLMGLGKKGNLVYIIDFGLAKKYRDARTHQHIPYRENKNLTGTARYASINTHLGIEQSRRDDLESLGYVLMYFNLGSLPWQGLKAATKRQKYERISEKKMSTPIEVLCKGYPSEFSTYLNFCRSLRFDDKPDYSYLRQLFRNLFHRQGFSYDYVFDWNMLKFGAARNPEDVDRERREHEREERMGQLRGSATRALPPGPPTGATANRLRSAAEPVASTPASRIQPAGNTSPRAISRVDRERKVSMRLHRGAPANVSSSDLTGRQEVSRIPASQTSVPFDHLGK

Structure (SMILES)	IC50 (JNK1 [5])	IC50 (JNK2 [6])	IC50 (JNK3 [8])	Kd (hVPS34)	Kd (JNK3 [9]; Table 3a, read-out: Kd JNK3)	Kd (MEK4)	Kd (JNK1 [10])	Kd (JNK3 [11])	solubility (Solubility)	half-life [12]	half-life [13]	Kd (JNK2 [14]; Table 3a, read-out: Kd JNK2)	other results
O[C@H]1CC[C@H](Nc2ncc3nc(Nc4c(F)cc(F)cc4F)n([C@H]4CCOC4)c3n2)CC1 [CDD-985, tanzisertib]													LATS1 inhibition in KINOMEscan (LATS1 [1]): weakly inhibited; phosphorylation of Jun at pSer63 and pSer73 [2]: lack of efficacy; Kd (Other MAPK): > 1000 nM; LATS1 inhibition in Z'Lyte assay (LATS1 [3]): not confirmed; effect in preclinical IPF models and human IPF patients ([4]; IPF): reduced inflammation, EMT, and fibrosis; clinical safety ([4]; listed as TANZ): adverse liver effect; clinical safety ([4]; listed as Tanzisertib): deemed safe
CNC(=O)CN1[C@H](CCNC(=O)OCc2ccccc2)CN(Cc2cccc3ccnn23)C[C@H]1CC(=O)NCCCN(C)c1ccc(F)cc1 [CDD-1723, benzyl (2-((2R,6R)-6-(2-((3-((4-fluorophenyl)(methyl)amino)propyl)amino)-2-oxoethyl)-1-(2-(methylamino)-2-oxoethyl)-4-(pyrazolo[1,5-a]pyridin-7-ylmethyl)piperazin-2-yl)ethyl)carbamate]	24 µM	32 µM	38 µM										JNK1 inhibition (JNK1 [7]; in words): good inhibition of JNK1
CNC(=O)CN1[C@@H](CCNC(=O)OCc2ccccc2)CN(Cc2cccc3ccnn23)C[C@@H]1CC(=O)NCCCN(C)c1ccc(F)cc1 [CDD-2009, benzyl (2-((2S,6S)-6-(2-((3-((4-fluorophenyl)(methyl)amino)propyl)amino)-2-oxoethyl)-1-(2-(methylamino)-2-oxoethyl)-4-(pyrazolo[1,5-a]pyridin-7-ylmethyl)piperazin-2-yl)ethyl)carbamate]													JNK1 activity relative to CDD-1723 (fold less active) (JNK1 [7]; enantiomer comparison): 20 fold
CNCc1ccc(NC(=O)c2ccn3ncc(-c4cnc(N)nc4)c3c2)cc1 [CDD-2387, 3-(2-aminopyrimidin-5-yl)-N-(4-((methylamino)methyl)phenyl)pyrazolo[1,5-a]pyridine-5-carboxamide]				0.13 µM	0.00844 ± 0.00066 µM	0.262 µM	0.00296 ± 0.00032 µM	0.0084 µM	254 µM (≈ 94.8 µg/mL)	2.01 h	2.04 h	0.0288 ± 0.0018 µM	Kd (CSNK1E): 2.66 µM; Kd (MEK5): 40.7 µM
COc1ccc(NC(=O)c2cc3c(-c4cnc5[nH]ccc5c4)cccc3s2)cc1C(=O)N1CCCCC1 [CDD-2491, N-(4-methoxy-3-(piperidine-1-carbonyl)phenyl)-4-(1H-pyrrolo[2,3-b]pyridin-5-yl)benzo[b]thiophene-2-carboxamide]				38 µM		0.0602 µM	0.00028 µM	0.00141 µM	2.5 µM (≈ 1.28 µg/mL)	0.26 h	0.213 h		Kd (JNK3 [9]): 0.00141 ± 0.00012 µM; Kd (CSNK1D): 8.35 µM; Kd (CSNK1G1): 95 µM; Kd (CLK2): 1.17 µM; Kd (JNK2 [14]): 0.00043 ± 9e-05 µM
CNCc1ccc(NC(=O)c2cc3c(-c4cnc5[nH]ccc5c4)cccc3s2)cc1 [CDD-2575, N-(4-((methylamino)methyl)phenyl)-4-(1H-pyrrolo[2,3-b]pyridin-5-yl)benzo[b]thiophene-2-carboxamide]	2.2 µM	2.3 µM	4.8 µM		0.00276 ± 0.00051 µM		0.00115 ± 0.00028 µM		40.6 µM (≈ 16.7 µg/mL)	1.95 h	6.81 h	0.00176 ± 0.00015 µM	effect on HepG2 cell viability / ATP consumption (HepG2 cells): non-specific decreases in cell viability were pronounced for CDD-2575 at 25 μM; also recorded: reduced ATP consumption
